pIC50: −log10 of the molar value.
system: Human Jurkat T-cells (clone N); assay: Jurkat T-cell activation (anti-TCR, CD69 upregulation); type: cell-based; conditions: not given
How it was run: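 Jurkat cells in RPMI + 5% FBS preincubated with compound 1 h at 37 °C, then stimulated with anti-TCR C305 at 500 ng/ml for 20 h. CD69 surface expression stained with anti-CD69-APC and read by flow cytometry; IC50 versus solvent-only control.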

Question: How did the pIC50 turn out when `CNC(=O)COc1ccc(Nc2ncc(F)c(Nc3ccc(C(C)(C)C)cc3)n2)cc1` [Compound R926712] was run?
Answer: 5.20

Question: How did the pIC50 turn out when `Nc1cccc(Nc2ncc(F)c(Nc3cccc(NCCOCc4ccccc4)c3)n2)c1` [Compound R950175] was run?
Answer: < 5.00

Question: How did the pIC50 turn out when `CNC(=O)COc1cccc(Nc2nc(Nc3ccc(OCCN(C)C)cc3)ncc2F)c1` [Compound R909253] was run?
Answer: 5.51

Question: With `COC(=O)Cn1ncc2ccc(Nc3nc(Nc4cccc(O)c4)ncc3F)cc21` [Compound R935220] as the compound, how does the pIC50 read?
Answer: 5.09

Question: With `CCOC(=O)CNc1cccc(Nc2ncc(F)c(Nc3cccc(NCCO)c3)n2)c1` [Compound R950229] as the compound, how does the pIC50 read?
Answer: 5.42

Question: `CC(=O)Nc1cccc(N(C(C)=O)c2ncc(F)c(N(C(C)=O)c3cccc(NC(C)=O)c3)n2)c1` [Compound R950244] was tested. Which pIC50 did it give?
Answer: < 5.00

Question: `CNC(=O)COc1cccc(Nc2ncc(F)c(Nc3ccc4c(c3)C=CCC4)n2)c1` [Compound R926944] was tested. Which pIC50 did it give?
Answer: 5.46

Question: `CN(C)C(=O)COc1cccc(Nc2ncc(F)c(Nc3ccc4c(c3)NCCO4)n2)c1` [Compound R909290] was tested. Which pIC50 did it give?
Answer: 5.81

Question: `Nc1cccc(Nc2nc(Nc3cccc(NC(=O)CCC(C(=O)O)N4C(=O)c5ccccc5C4=O)c3)ncc2F)c1` (racemic) [Compound R950251] was tested. Which pIC50 did it give?
Answer: < 5.00

Question: With `CCOC(=O)COc1ccc(Nc2nc(Nc3ccc(OCC(=O)OCC)cc3)c(NC(=O)NC3CCCC3)c(C(=O)OCC)n2)cc1` [Compound R926588] as the compound, how does the pIC50 read?
Answer: < 5.00

Question: With `CC1(C)Oc2ccc(Nc3nc(Nc4cccc(O)c4)ncc3F)cc2NC1=O` [Compound R940346] as the compound, how does the pIC50 read?
Answer: 5.68

Question: How did the pIC50 turn out when `CNC(=O)COc1ccc(Nc2ncc(F)c(Nc3cccc(O)c3)n2)cc1` [Compound R945170] was run?
Answer: 5.38

Question: How did the pIC50 turn out when `CCOc1ccc(Nc2ncc([N+](=O)[O-])c(Nc3ccc(OCC)cc3)n2)cc1` [Compound R940090] was run?
Answer: < 5.00

Question: `COC(=O)COc1cccc(Nc2ncc(F)c(Nc3cccc(O)c3)n2)c1` [Compound R945118] was tested. Which pIC50 did it give?
Answer: 5.02

Question: With `CC1(C)Oc2cc(Nc3nc(Cl)ncc3F)cnc2NC1=O` [Compound R940344] as the compound, how does the pIC50 read?
Answer: 5.11

Question: How did the pIC50 turn out when `Fc1cnc(Nc2ccc3c(c2)OCCO3)nc1Nc1ccc2[nH]ncc2c1` [Compound R935267] was run?
Answer: 5.41

Question: How did the pIC50 turn out when `COc1ccc(Nc2ncc([N+](=O)[O-])c(Nc3ccc(OC)c(OC)c3)n2)cc1OC` [Compound R940089] was run?
Answer: < 5.00

Question: `Fc1cnc(Nc2ccc3c(c2)OCCO3)nc1Nc1ccc(OCCN2CCOCC2)cc1` [Compound R926711] was tested. Which pIC50 did it give?
Answer: 5.42

Question: With `CNC(=O)COc1cc(Nc2ncc(F)c(Nc3cccc(O)c3)n2)ccc1OC` [Compound R926829] as the compound, how does the pIC50 read?
Answer: 5.51

Question: `CCOC(=O)COc1ccc(Nc2ncc(F)c(Nc3ccc4c(c3)OCCO4)n2)cc1` [Compound R925747] was tested. Which pIC50 did it give?
Answer: < 5.00

Question: How did the pIC50 turn out when `NC(=O)COc1ccc(Nc2ncc(F)c(Nc3cccc(O)c3)n2)cc1` [Compound R945064] was run?
Answer: 5.33

Question: How did the pIC50 turn out when `Cc1cnc(Nc2ccc(OCc3nnn[nH]3)cc2)nc1Nc1cccc(O)c1` [Compound R920820] was run?
Answer: < 5.00

Question: With `Oc1cccc(Nc2ncc(F)c(Nc3ccc4cn[nH]c4c3)n2)c1` [Compound R935262] as the compound, how does the pIC50 read?
Answer: 5.51

Question: `CNC(=O)COc1cccc(Nc2ncc(F)c(Nc3cnc4c(c3)OCCN4)n2)c1` [Compound R945263] was tested. Which pIC50 did it give?
Answer: 5.35

Question: How did the pIC50 turn out when `Oc1cccc(Nc2ccnc(Nc3ccc(OCc4nn[nH]n4)cc3)n2)c1` [Compound R920819] was run?
Answer: < 5.00

Question: How did the pIC50 turn out when `Cc1nc(COc2cccc(Nc3nc(Nc4ccc(OCC(N)=O)cc4)ncc3F)c2)no1` [Compound R945133] was run?
Answer: 5.04

Question: `OCCn1ncc2ccc(Nc3ncc(F)c(Nc4ccc5c(c4)OCCO5)n3)cc21` [Compound R935248] was tested. Which pIC50 did it give?
Answer: 5.72

Question: How did the pIC50 turn out when `Cn1nnnc1COc1ccc(Nc2ncc(F)c(Nc3ccc(OCc4nnnn4C)cc3)n2)cc1` [Compound R945048] was run?
Answer: 5.65

Question: How did the pIC50 turn out when `O=C(c1cc2cc(Nc3ncc(F)c(Nc4ccc5c(c4)OCCO5)n3)ccc2o1)N1CCCNCC1` [Compound R926768] was run?
Answer: 6.01

Question: How did the pIC50 turn out when `O=C1CCOc2ccc(Nc3ncc(F)c(Nc4ccc5c(c4)C(=O)CCO5)n3)cc21` [Compound R950378] was run?
Answer: < 5.00

Question: `COc1ccc(-c2ccccc2)cc1Nc1ncc(F)c(Nc2cc(-c3ccccc3)ccc2OC)n1` [Compound R926400] was tested. Which pIC50 did it give?
Answer: < 5.00

Question: How did the pIC50 turn out when `CSc1nc2ccc(Nc3ncc(F)c(Nc4cccc(O)c4)n3)cc2s1` [Compound R950212] was run?
Answer: 5.02

Question: With `CNC(=O)COc1cccc(Nc2ncc(F)c(Nc3ccc4c(c3)N(c3ccccn3)CC(C)(C)O4)n2)c1` [Compound R940337] as the compound, how does the pIC50 read?
Answer: 5.74

Question: How did the pIC50 turn out when `NC(=O)COc1ccc(Nc2nc(Nc3ccc4c(c3)OCCO4)ncc2F)cc1` [Compound R945171] was run?
Answer: 5.50

Question: With `CCOC(=O)c1cnc(Nc2ccc(OCC(=O)NCC3CC3)cc2)nc1Nc1cccc(O)c1` [Compound R925838] as the compound, how does the pIC50 read?
Answer: < 5.00

Question: `CNC(=O)COc1cccc(Nc2ncc(F)c(Nc3ccc(OC)c(CN(C)C)c3)n2)c1` [Compound R940321] was tested. Which pIC50 did it give?
Answer: 5.43

Question: `CCOC(=O)C(C)(C)c1ccc(Nc2nc(Nc3cccc(O)c3)ncc2F)cc1` [Compound R935169] was tested. Which pIC50 did it give?
Answer: 5.12

same assay, conditions: Homo sapiens

Question: With `Cc1ccc(Nc2ccnc(Nc3ccc(C)c([N+](=O)[O-])c3)n2)cc1[N+](=O)[O-]` [Compound R950153] as the compound, how does the pIC50 read?
Answer: < 5.00

same assay, conditions: Homo sapiens, Jurkat

Question: How did the pIC50 turn out when `O=S(=O)(c1ccc(Nc2ncc(F)c(Nc3ccc4c(c3)OCCO4)n2)cc1)N1CCCC1` [Compound R926716] was run?
Answer: 5.44

Question: How did the pIC50 turn out when `c1cc2c(cc1Nc1cc(Nc3ccc4c(c3)OCCO4)nc(Nc3ccc4c(c3)OCCO4)n1)OCCO2` [Compound R926516] was run?
Answer: 4.75

Question: `N#Cc1cnc(Nc2cccc(O)c2)nc1Nc1cccc(O)c1` [Compound R925774] was tested. Which pIC50 did it give?
Answer: 5.13

Question: How did the pIC50 turn out when `Cc1ccc(-c2ccccc2)cc1Nc1ccnc(Nc2cc(-c3ccccc3)ccc2C)n1` [Compound R925807] was run?
Answer: < 5.00

Question: `COC(=O)c1ccc(Nc2ncc(F)c(Nc3ccc(C(=O)OC)cc3)n2)cc1` [Compound R945034] was tested. Which pIC50 did it give?
Answer: < 5.00

Question: How did the pIC50 turn out when `Fc1cnc(NC(c2ccc(Cl)cc2)c2ccc(Cl)cc2)nc1NC(c1ccc(Cl)cc1)c1ccc(Cl)cc1` [Compound R935006] was run?
Answer: < 5.00

Question: With `Oc1cccc(Nc2nc(NCc3ccccn3)ncc2F)c1` [Compound R945166] as the compound, how does the pIC50 read?
Answer: < 5.00

Question: `OCc1cccc(Nc2ncc(F)c(Nc3cccc(CO)c3)n2)c1` [Compound R925757] was tested. Which pIC50 did it give?
Answer: < 5.00

Question: `Fc1cnc(NC(c2ccccc2)c2ccccc2)nc1NC(c1ccccc1)c1ccccc1` [Compound R935005] was tested. Which pIC50 did it give?
Answer: < 5.00

Question: `Oc1cccc(Nc2ncc(F)c(Nc3cccc(C4=NN(c5ccccc5)CO4)c3)n2)c1` [Compound R926866] was tested. Which pIC50 did it give?
Answer: < 5.00

Question: With `CNC(=O)c1cccc(Nc2ncc(F)c(Nc3cccc(O)c3)n2)c1` [Compound R926936] as the compound, how does the pIC50 read?
Answer: 5.10

Question: With `Cc1cc(O)cc(N(c2ccc3c(c2)OCCO3)c2nc(N)ncc2F)c1` [Compound R926893] as the compound, how does the pIC50 read?
Answer: < 5.00

Question: How did the pIC50 turn out when `CCOC(=O)C1CCN(C(=O)c2cccc(Nc3ncc(F)c(Nc4ccc5cc[nH]c5c4)n3)c2)CC1` [Compound R926935] was run?
Answer: 4.93

Question: With `COc1cc(-c2ccccc2)c(C)cc1Nc1ncc(Br)c(Nc2cc(C)c(-c3ccccc3)cc2OC)n1` [Compound R925801] as the compound, how does the pIC50 read?
Answer: < 5.00

Question: How did the pIC50 turn out when `COc1ccc(Nc2ncc(F)c(Nc3ccc4c(c3)OCCO4)n2)c(OC)c1` [Compound R926789] was run?
Answer: < 5.00

Question: With `CCOC(=O)c1cc2cc(Nc3ncc(F)c(Nc4cccc(O)c4)n3)ccc2[nH]1` [Compound R926615] as the compound, how does the pIC50 read?
Answer: 5.73

Question: How did the pIC50 turn out when `Fc1cnc(Nc2ccc(Cl)cc2)nc1Nc1ccc(Cl)cc1` [Compound R926206] was run?
Answer: < 5.00

Question: With `Fc1cnc(Nc2ccc3cc[nH]c3c2)nc1Nc1ccc2c(c1)OCCO2` [Compound R926750] as the compound, how does the pIC50 read?
Answer: 6.27

Question: How did the pIC50 turn out when `OCCOc1cccc(Nc2nc(Nc3ccc4c(c3)OCCO4)ncc2F)c1` [Compound R935176] was run?
Answer: 5.70

— patent publication US8158621B2, “Methods of treating or preventing autoimmune diseases with 2,4-pyrimidinediamine compounds” (Rigel Pharmaceuticals, Inc., priority 2002, dated 2012)
